Experimental findings from publication PMC8538301, “Structurally Diverse Polycyclic Salicylaldehyde Derivative Enantiomers from a Marine-Derived Fungus Eurotium sp. SCSIO F452” (Marine Drugs, 2021) are described below.

One experiment deals with α-glucosidase. The experiment can be described thus: α-Glucosidase inhibitory activity assay (PNPG substrate). The experiment is classed as biochemical. The conditions noted are these: pH 6.8, 37 °C. On the procedure:
Inhibitory α-glucosidase activities were determined spectrophotometrically in a 96-well microtiter plate based on p-nitrophenyl-α-D-glucopyranoside (PNPG) as a substrate. In brief, 20 μL 0.2 U/mL α-glucosidase enzyme solution, 50 μL 0.1 mol/L PBS (pH 6.8), and 10 μL of the test compounds in DMSO were mixed and preincubated at 37 °C prior to initiation of the reaction by adding the substrate. After 10 min of preincubation, 20 μL 5 mmol/L PNPG solution was added and then incubated together at 37 °C. After 15 min of incubation, 20 μL 0.2 mol/L Na2CO3 was added to the test tubes to stop the reaction. The absorbance values were measured at 405 nm and converted into percentage inhibitory activity using the following formula: AA(%) = [1 − Asample/(Anegative control − Ablank)] × 100%. […] All data were obtained in triplicate and presented as means ± SD. IC50 values were calculated with the Sigma Plot 10.0 software using a non-linear curve-fitting method.

Experiment [1] in a line: Antioxidative assay (DPPH radical scavenging). The conditions noted are these: 12 h, 517 nm. On the procedure: Sample stock solutions (10 mM) were diluted to final concentrations of 2, 4, 8, 16, 32, 64, and 128 μM in ethanol. Then, 100 μL 0.2 mmol/L DPPH ethanol solution was added to 100 μL sample solutions of different concentrations on 96-well plates, and allowed to react at room temperature. […] After 12 h, the absorbance values were measured at 517 nm and converted into the percentage antioxidant activity (AA) using the following formula: AA(%) = [1 − (Asample − Ablank)/Acontrol] × 100%. All data were obtained in triplicate and are presented as means ± S.D. EC50 values were calculated with the SigmaPlot 10.0 software (Systat Software Inc., CA, USA) using a non-linear curve-fitting method.

In experiment [2] the test system is SF-268 (human glioblastoma carcinoma). Briefly: Cytotoxicity assay (SRB). The experiment is classed as cell-based. Particulars: SF-268 cells, mean ± SD. The procedure: (§1) The cells of SF-268 (human glioblastoma carcinoma), MCF-7 (breast cancer), HepG-2 (liver cancer), and A549 (lung cancer) were purchased from Stem Cell Bank, Chinese Academy of Sciences. The cells were cultured in DMEM medium (Gibco) containing 10% fetal bovine serum (Gibco) at 37 °C in a humidified atmosphere with 5% (v/v) CO2. The cells were incubated in cultural flasks until sub-confluent (~80%). Then, cells (180 μL) with a density of 3 × 10^4 cells/mL of media were seeded onto 96-well plates and incubated for 24 h at 37 °C, 5% CO2. Subsequently, 20 μL of different concentrations of compounds ranging from 1 to 128 μM in DMSO were added to each plate well. Equal volume of DMSO was used as a negative control. The plates were further incubated for 72 h. After incubation, cell monolayers were fixed with 50% (wt/v) trichloroacetic acid (50 μL) and stained for 30 min with 0.4% (wt/v) SRB dissolved in 1% acetic acid. Unbound dye was removed by washing repeatedly with 1% acetic acid. The protein-bound dye was dissolved in 10 mM Tris base solution (200 µL) for OD determination at 570 nm using a microplate reader. […] All data were obtained in triplicate and presented as means ± SD. IC50 values were calculated with the Sigma Plot 10.0 software (Systat Software Inc., CA, USA) using a non-linear curve-fitting method.

Another experiment concerns A549 (lung cancer). The experiment can be described thus: Cytotoxicity assay (SRB). The experiment is classed as cell-based, human. Particulars: A549 cells, mean ± SD. The procedure: as §1
In the next experiment the test system is HepG2 (liver cancer). The experiment can be described thus: Cytotoxicity assay (SRB). It is filed as cell-based, human. The conditions noted are these: HepG2 cells, mean ± SD. The procedure:
as §1

The test system of another experiment is MCF-7 (breast cancer). Briefly: Cytotoxicity assay (SRB). The experiment is classed as cell-based, human. Particulars: MCF-7 cells, mean ± SD. On the procedure:
as §1

By IC50 is commonly meant the concentration that gives 50% inhibition. Low values mean higher potency, high ones lower potency. A word on the EC50: it is the concentration at which the effect is half-maximal. Lower therefore signals greater potency. For the compound `CCCCCC1(O)Cc2c3c(cc(O)c2C1=O)C=CC(C)(C)O3` (racemic) [(±)-3, Euroticin H], the IC50 on α-glucosidase was 16.3 ± 1.68 µM; in experiment [2] (Homo sapiens, SF-268, 72 h), > 100 µM; in the experiment with A549 (lung cancer) (Homo sapiens, A549, 72 h), > 100 µM; in the experiment with HepG2 (liver cancer) (Homo sapiens, HepG2, 72 h), > 100 µM; with MCF-7 (breast cancer) (Homo sapiens, MCF7, 72 h) it was > 100 µM. For the same compound, in experiment [1], the EC50 is > 100 µM.

Turning to `CCCCCCCC1(O)CC(C=CC(C)(C)O)=CC1=O` (single isomer, unassigned; (+)) [(+)-4, Euroticin I], the IC50 at α-glucosidase is > 100 µM; in experiment [2] (72 h), 12.7 ± 0.46 µM; in the experiment on A549 (lung cancer) (72 h), 16.9 ± 0.92 µM; in the experiment with HepG2 (liver cancer) (72 h), 19.9 ± 5.09 µM; in the experiment on MCF-7 (breast cancer) (72 h) it was 20.5 ± 1.54 µM. Also, the EC50 in experiment [1] is > 100 µM.

As for `CCCCCCCC1(O)CC(C=CC(C)(C)O)=CC1=O` (single isomer, unassigned; (-)) [(−)-4, Euroticin I], the IC50 is > 100 µM on α-glucosidase; 23.7 ± 3.88 µM in experiment [2] (Homo sapiens, SF-268, 72 h); 22.2 ± 1.54 µM with A549 (lung cancer) (Homo sapiens, A549, 72 h); 19.5 ± 2.7 µM in the experiment with HepG2 (liver cancer) (Homo sapiens, HepG2, 72 h); 23.6 ± 2.99 µM in the experiment with MCF-7 (breast cancer) (Homo sapiens, MCF7, 72 h). Besides, the EC50 in experiment [1] was > 100 µM.

Turning to `CC(C)=CCc1cc2c(c(C=O)c1O)C1C(O)CCC1C(C)O2` (single isomer, unassigned; (-)) [(−)-5, eurotirumin], the IC50 against α-glucosidase is > 100 µM; in experiment [2] (Homo sapiens, SF-268, 72 h) it was 35.6 ± 1.79 µM; in the experiment on A549 (lung cancer) (Homo sapiens, A549, 72 h), 42.6 ± 1.43 µM; in the experiment on HepG2 (liver cancer) (Homo sapiens, HepG2, 72 h) it was 40.7 ± 2.76 µM; with MCF-7 (breast cancer) (Homo sapiens, MCF7, 72 h), 50.7 ± 2.48 µM. In experiment [1], the 50% effective concentration (EC50) was > 100 µM.

On to `CCCCC[C@H]1O[C@]2(C)Cc3c4c(cc(O)c3[C@H]1O2)C=CC(C)(C)O4` [(+)-1, Euroticin F], for which the IC50 on α-glucosidase is > 100 µM; in experiment [2] (Homo sapiens, SF-268, 72 h), 21.9 ± 0.96 µM; in the experiment with A549 (lung cancer) (Homo sapiens, A549, 72 h) it was 33.8 ± 0.34 µM; in the experiment on HepG2 (liver cancer) (Homo sapiens, HepG2, 72 h), 28 ± 1.68 µM; with MCF-7 (breast cancer) (Homo sapiens, MCF7, 72 h) it was 27.2 ± 2.03 µM. The EC50 in experiment [1] came to 42.3 ± 3.85 µM.

Turning to `CO[C@H]1O[C@@H]2CC[C@@H]([C@H](C)O)[C@@H]2c2c(O)cc(CC=C(C)C)c(O)c21` [(+)-2, Euroticin G], the concentration for half-maximal inhibition (IC50) at α-glucosidase is 38 ± 2.73 µM; in experiment [2] (Homo sapiens, SF-268, 72 h), > 100 µM; with A549 (lung cancer) (Homo sapiens, A549, 72 h), > 100 µM; in the experiment on HepG2 (liver cancer) (Homo sapiens, HepG2, 72 h) it was > 100 µM; in the experiment on MCF-7 (breast cancer) (Homo sapiens, MCF7, 72 h) it was > 100 µM. In addition, in experiment [1], the EC50 was 76.9 ± 0.99 µM.

In the case of `CC(C)=CCc1cc2c(c(C=O)c1O)[C@@H]1[C@H](CC[C@@H]1O)[C@@H](C)O2` [(+)-5, eurotirumin], the IC50 on α-glucosidase was 89.4 ± 7.86 µM; in experiment [2] (Homo sapiens, SF-268, 72 h), 22 ± 0.88 µM; with A549 (lung cancer) (Homo sapiens, A549, 72 h), 47.3 ± 0.71 µM; in the experiment with HepG2 (liver cancer) (Homo sapiens, HepG2, 72 h) it was 41.2 ± 2.63 µM; with MCF-7 (breast cancer) (Homo sapiens, MCF7, 72 h), 55.6 ± 4.85 µM. In addition, in experiment [1], the EC50 is > 100 µM.

For `CCCCC[C@@H]1O[C@@]2(C)Cc3c4c(cc(O)c3[C@@H]1O2)C=CC(C)(C)O4` [(−)-1, Euroticin F], the IC50 against α-glucosidase is > 100 µM; in experiment [2] (Homo sapiens, SF-268, 72 h), 37.3 ± 2.46 µM; in the experiment with A549 (lung cancer) (Homo sapiens, A549, 72 h), 33.4 ± 1.5 µM; in the experiment with HepG2 (liver cancer) (Homo sapiens, HepG2, 72 h), 30.7 ± 3.55 µM; in the experiment on MCF-7 (breast cancer) (Homo sapiens, MCF7, 72 h) it was 28 ± 1.57 µM. In addition, the EC50 in experiment [1] came to 41.4 ± 2.68 µM.

Consider `CO[C@@H]1O[C@H]2CC[C@H]([C@@H](C)O)[C@H]2c2c(O)cc(CC=C(C)C)c(O)c21` [(−)-2, Euroticin G], for which the IC50 against α-glucosidase was 79.7 ± 1.74 µM; in experiment [2] (Homo sapiens, SF-268, 72 h) it was > 100 µM; with A549 (lung cancer) (Homo sapiens, A549, 72 h), > 100 µM; in the experiment with HepG2 (liver cancer) (Homo sapiens, HepG2, 72 h), > 100 µM; with MCF-7 (breast cancer) (Homo sapiens, MCF7, 72 h), > 100 µM. Besides, a half-maximal response in experiment [1] (EC50) required 77.1 ± 1.88 µM.

For the compound `COc1cccc2c1C(=O)c1c(O)c3c(c(O)c1C2=O)C[C@@](O)(C(=O)CO)C[C@@H]3O[C@H]1C[C@H](N)[C@H](O)[C@H](C)O1` [Adriamycin, reference compound], the IC50 in experiment [2] (Homo sapiens, SF-268, 72 h) worked out at 1.19 ± 0.03 µM; with A549 (lung cancer) (Homo sapiens, A549, 72 h) it was 1.73 ± 0.04 µM; in the experiment on HepG2 (liver cancer) (Homo sapiens, HepG2, 72 h), 1.99 ± 0.07 µM; in the experiment with MCF-7 (breast cancer) (Homo sapiens, MCF7, 72 h), 2.02 ± 0.04 µM.

In experiment [1], `O=C1O[C@H]([C@@H](O)CO)C(O)=C1O` [Ascorbic acid, reference compound] showed an EC50 of 11.3 ± 0.56 µM.
